Holding throughout (assay type): functional, cell-based
The subject of one assay is HEPA 59T/VGH. Briefly: (§1) Cytotoxicity against human HEPA 59T/VGH cells by methylene blue dye assay.
Another assay has as its system KB16. Briefly: (§2) Cytotoxicity against human KB16 cells by methylene blue dye assay.
Assay [1] is described as follows: as §1.
The nature of assay [2]: as §2.

For four molecules, Activity and IC50 results are on record in ChEMBL document CHEMBL1159351, “New briaranes from the Taiwanese gorgonian Junceella juncea” (J Nat Prod, 2003).

For orientation: IC50 means the point on the concentration scale where inhibition reaches its midpoint. Low values mean greater potency, high ones weaker potency.

≈ marks a conversion by molar mass, not a printed value. Calls of active or inactive are those of the source. The calls are words filed in the database; no cut-off is given here.

Turning to `CC(=O)O[C@H]1C[C@]2(CO2)[C@H]2[C@](C)([C@H]1OC(C)=O)[C@]1(OC(C)=O)/C=C\C(CO)=C/[C@@H]3OC(=O)[C@H](C)[C@@]3(O)[C@]21OC(C)=O`, the outcome with HEPA 59T/VGH and in the assay on KB16 was inactive.
`COCC1=C/[C@@H]2OC(=O)[C@H](C)[C@@]2(O)[C@]2(OC(C)=O)[C@H]3[C@@]4(CO4)[C@H](OC(C)=O)[C@H](OC(C)=O)[C@H](OC(C)=O)[C@]3(C)[C@]2(OC(C)=O)/C=C\1`: the outcome in the assay on HEPA 59T/VGH and in the assay on KB16 was inactive.
On to `CC(=O)O[C@H]1[C@@H](OC(C)=O)[C@]2(CO2)[C@H]2[C@](C)([C@H]1OC(C)=O)[C@]1(OC(C)=O)/C=C\C(CO)=C/[C@@H]3OC(=O)[C@H](C)[C@@]3(O)[C@]21OC(C)=O` [JUNCENOLIDE C], for which the IC50 in assay [1] was determined as 6.6 µg/mL (≈ 10.4 µM); in assay [2], 7.8 µg/mL (≈ 12.3 µM).
Take `C=C1/C=C/[C@H](OC(C)=O)[C@@]2(C)[C@@H](OC(C)=O)CC[C@]3(CO3)[C@@H]2[C@H](OC(C)=O)[C@]2(O)[C@@H](C)C(=O)O[C@H]2[C@H]1Cl`: the result with HEPA 59T/VGH and with KB16 was inactive.
